Patent publication US20250304623A1, “PEPTIDES FOR INTRACELLULAR DELIVERY” (UNIVERSIDADE DE SANTIAGO DE COMPOSTELA, priority 2022, published 2025)
Starred links: 1 amine or outer side, 2 acyl side, 3 side chain; linkers in the order of their positions; H or OH if unused. Residues, ends and D or L forms follow the SMILES beside them. Groups on a side chain read outwards from the residue. *: point of attachment. Glutaryl = O=C(CCCC(=O)[*:2])[*:1]; NHNH2 = NN*

Key:
Assay type in all cases: cell-based
Hek293 cells = test: EGFP mRNA delivery, robotic library screening, Hek293
Description: Cells were seeded in a 96 well plate the day before the experiment at a concentration of 50,000 cell/mL (100 μL/w) in DMEM+10% FBS+1% Gln-Abt. For robotic library screening, the delivery of EGFP-mRNA (from TriLink, fully substituted with 5-methoxyuridine, capped and polyadenylated; TriLink, CleanCap® EGFP mRNA (5moU), ref. L-7201) in six different cell lines was performed. Amphiphilic molecule stock solutions were prepared in DMSO as described above and diluted in DMEM to afford a range of concentrations. The solutions of EGFP-mRNA/amphiphilic molecule complexes were freshly prepared prior to the transfection experiments. 35 μL of the corresponding amphiphile were added to 10 μL of a solution of EGFP-mRNA at 10 ng/μL in DMEM. The mixture was shaken for 30 min at room temperature before the addition to the cells. The cell medium was aspirated, and cells were washed with PBS twice. Cells were covered with 39 μL of DMEM and 11 μL of the complex's solution were added to the cells and incubated for 4 h (final concentration of peptide=2.5, 5 and 10 μM; final concentration of EGFP-mRNA=25 ng/well). After the incubation, the medium was replaced by 100 μL of fresh DMEM supplemented with 10% FBS. The total EGFP fluorescence was quantified after 72 h in a well plate reader. Amphiphile transfection efficiency was compared and normalized to Lipofectamine® MessengerMax efficiency (value of 1 in Tables 1-5 and 7; double underlined numbers). All experiments were done in triplicate.
(§1) Tables 1-7: RLuc (pDNA) or EGFP (mRNA) expression levels were normalized to Lipofectamine reagents (value=1) and expressed as fold-times signal increase. In the case of siRNA, the siRNA treated cells fluorescence was compared with siMOCK control fluorescence, while Cas9-RNP mediated knockout was measured against the fluorescence of untreated cells. In both siRNA and Cas9-RNP, values are expressed as % fluorescence reduction. Amphiphile concentration was 5 μM in all cases. All experiments were performed in triplicate.
Tables 14-19 show the mean (triplicates) fluorescence intensity measured after the transfection of EGFP mRNA by different amphiphiles at different concentrations in a variety of cell lines. Background fluorescence values, accounted by untreated control cells, were subtracted for processing.

[1] = system: Hek293 cells expressing EGFP; test: Cas9-RNP delivery against EGFP (gene editing, plate reader), Hek293
Description: (§2) To generate an EGFP expressing HeLa cell line, HeLa cells were transfected with EGFP pDNA (pEGFP-C1, Clontech) and stable transfectants were selected with 400 μg/mL of G-418 (Millipore). Green clones were selected by epifluorescence microscopy and tested for EGFP expression stability through several passages. […] All other EGFP-expressing cell lines were obtained in a similar way from parent non-EGFP-expressing cell lines.
Cells expressing EGFP were seeded in a 96 well plate the day before the experiment at a concentration of 50,000 cell/mL (100 μL/w) in DMEM+10% FBS+1% Gln-Abt. For robotic library screening, the delivery of Cas9-RNP against EGFP (RNP designed to knock-out the gene encoding for the enhanced green fluorescent protein (EGFP)) was performed. For RNP assembly, 9.2 μL of crRNA and 9.2 μL of tracrRNA were mixed in 211.6 μL of Nuclease-Free Duplex Buffer (IDT), incubated for 5 min at 95° C. and slowly cooled at rt (see I. Lostalé-Seijo, et al. Peptide/Cas9 nanostructures for ribonucleoprotein cell membrane transport and gene edition, Chem. Sci., 2017). Cas9 protein was dissolved in DMEM at a final concentration of 4 μM and equal volumes of the RNA complex and Cas9 were mixed and incubated for 5 min at rt. 75 μL of the corresponding amphiphile concentrations were added to 5 μL of RNP at 2 μM. The mixture was shaken for 30 min at room temperature before the addition to the cells. The cell medium was aspirated, and cells were washed twice with PBS. Cells were covered with 30 μL of DMEM and 20 μL of the RNP/amphiphile complexes were added to the cells (final peptide concentrations=2.5, 5 and 10 μM; final Cas9-RNP concentration=50 nM) and incubated for 4 h. After the incubation, the medium was replaced by 100 μL of fresh DMEM supplemented with 10% FBS. The total EGFP fluorescence was quantified after 72 h in a plate reader (FIG. 2, Table 1 (right) and Table 6). All experiments were done in triplicate. […]
Tables 26-31 show the mean (triplicates) percentage of gene editing, accounted by GFP fluorescence intensity decrease (% of reduction), measured after the transfection of Cas9-RNP by different amphiphiles at different concentrations in a variety of cell lines. Background values, accounted by untreated control cells, were subtracted for processing.

[2] = system: HepG2 cells expressing EGFP; test: EGFP-targeting siRNA delivery (GFP silencing vs siMOCK), HepG2
Description: as §2
Cells expressing EGFP were seeded in a 96 well plate the day before the experiment at a concentration of 50,000 cell/mL (100 μL/w) in DMEM+10% FBS+1% Gln-Abt. For robotic library screening, the delivery of an EGFP-targeting siRNA (EGFP: enhanced green fluorescent protein, Ambion® Silencer® GFP Positive Control siRNA (siGFP) (AM4626)) in six different cell lines expressing EGFP was performed. […] The mixture was shaken for 30 min at room temperature (rt) before the addition to the cells. The cell medium was aspirated, and cells were washed twice with PBS. Finally, 50 μL of the solution of siRNA/amphiphile complexes were added to the cells and incubated for 4 h. After transfection, the medium was replaced by 100 μL of fresh DMEM supplemented with 10% FBS. The fluorescence knockdown was quantified after 72 h in a plate reader, by comparison with cells transfected with a non-targeting siRNA control (siMOCK, Silencer™ Negative Control No. 1 siRNA (siMOCK) (AM4611)). EGFP knockdown was compared with Lipofectamine® RNAiMAX silencing efficiency (30-60% depending on cell line, defined with a numeric value in the below tables). All experiments were done in triplicate.
as §1
Tables 20-25 show the mean (triplicates) percentage of GFP-silencing, accounted by fluorescence intensity decrease relative to a non-targeting siRNA (siMOCK) control, measured after the transfection of siRNA by different amphiphiles at different concentrations in a variety of cell lines. Background values, accounted by untreated control cells, were subtracted for processing.

| Compound | mean fluorescence intensity (EGFP mRNA) (Hek293 cells; Myristoleyl, 2.5 μM) | mean fluorescence intensity (EGFP mRNA) (Hek293 cells; Oleyl, 2.5 μM) | mean fluorescence intensity (EGFP mRNA) (Hek293 cells; Oleyl, 5 μM) | mean fluorescence intensity (EGFP mRNA) (Hek293 cells; Oleyl, 10 μM) | mean fluorescence intensity (EGFP mRNA) (Hek293 cells; Palmitoleyl, 10 μM) | mean fluorescence intensity (EGFP mRNA) (Hek293 cells; Petroselinyl, 2.5 μM) | mean fluorescence intensity (EGFP mRNA) (Hek293 cells; Petroselinyl, 5 μM) | mean fluorescence intensity (EGFP mRNA) (Hek293 cells; Petroselinyl, 10 μM) | percentage of gene editing, GFP fluorescence intensity decrease (% of reduction) ([1]; Dodecanal, 5 μM) [%] | percentage of gene editing, GFP fluorescence intensity decrease (% of reduction) ([1]; Oleyl, 10 μM) [%] | percentage of gene editing, GFP fluorescence intensity decrease (% of reduction) ([1]; Oleyl, 15 μM) [%] | percentage of gene editing, GFP fluorescence intensity decrease (% of reduction) ([1]; Palmitoleyl, 5 μM) [%] | percentage of gene editing, GFP fluorescence intensity decrease (% of reduction) ([1]; Palmitoleyl, 10 μM) [%] | percentage of gene editing, GFP fluorescence intensity decrease (% of reduction) ([1]; Palmitoleyl, 15 μM) [%] | percentage of gene editing, GFP fluorescence intensity decrease (% of reduction) ([1]; Petroselinyl, 5 μM) [%] | percentage of gene editing, GFP fluorescence intensity decrease (% of reduction) ([1]; Petroselinyl, 10 μM) [%] | percentage of gene editing, GFP fluorescence intensity decrease (% of reduction) ([1]; Petroselinyl, 15 μM) [%] | percentage of GFP-silencing relative to siMOCK ([2]; Palmitoleyl, 10 μM) [%] | mean fluorescence intensity (EGFP mRNA) (Hek293 cells; Palmitoleyl, 2.5 μM) | mean fluorescence intensity (EGFP mRNA) (Hek293 cells; Palmitoleyl, 5 μM) | other results |
| --- | --- | --- | --- | --- | --- | --- | --- | --- | --- | --- | --- | --- | --- | --- | --- | --- | --- | --- | --- | --- | --- |
| Ac-RHLK*RLK*RRLK*RL-NH2 (Ac-RHLKRLKRRLKRL-NH2; not fully specified (residues 4, 7, 11); printed as Ac-RHLK*RLK*RRLK*RL-NH2; also: linker on K* not given here) [13(Arg-His)] | 2326 | 5005 | 1571 | 1231 | 777 | 1436 | 638 | 372 | 21 | −8 | −8 | 1 | 5 | −26 | 8 | −19 | −44 | 30 | – | – | percentage of gene editing, GFP fluorescence intensity decrease (% of reduction) ([1]; Myristoleyl, 15 μM): −75%; percentage of GFP-silencing relative to siMOCK ([2]; Petroselinyl, 5 μM): 21% |
| Ac-RRHK*RLK*RRLK*RL-NH2 (Ac-RRHK(NHNH2)RLK(NHNH2)RRLK(NHNH2)RL-NH2; not fully specified; printed as Ac-RRHK*RLK*RRLK*RL-NH2; also: K*4,K*7,K*11: native or modified lysine (ε-amide to a linker)) [13(Leu-His)] | – | – | – | – | – | 629 | −150 | −168 | – | −4 | – | −8 | −33 | −39 | 16 | 7 | −32 | 12 | 4730 | 1141 | percentage of gene editing, GFP fluorescence intensity decrease (% of reduction) ([1]; Myristoleyl, 10 μM): −16%; percentage of GFP-silencing relative to siMOCK ([2]; Dodecanal, 15 μM): 27%; percentage of GFP-silencing relative to siMOCK ([2]; Myristoleyl, 10 μM): −3%; percentage of GFP-silencing relative to siMOCK ([2]; Palmitoleyl, 15 μM): 25%; percentage of GFP-silencing relative to siMOCK ([2]; Petroselinyl, 10 μM): 25%; percentage of GFP-silencing relative to siMOCK ([2]; Petroselinyl, 15 μM): 6% |
| CC(=O)N[C@@H](CCCNC(=N)N)C(=O)N[C@@H](CCCCNC(=O)CCCC(=O)NN)C(=O)N[C@@H](Cc1c[nH]cn1)C(=O)N[C@@H](CCCNC(=N)N)C(=O)N[C@@H](CCCCNC(=O)CCCC(=O)NN)C(=O)N[C@@H](CCCCNC(=O)CCCC(=O)NN)C(=O)N[C@@H](Cc1c[nH]cn1)C(N)=O [7.3(L-H), Ac-RK*HRK*K*H-NH2] (Ac-RK([Glutaryl-NHNH2])HRK([Glutaryl-NHNH2])K([Glutaryl-NHNH2])H-NH2) | 21438 | 9690 | 17787 | 1626 | 4716 | 29561 | 12351 | 6511 | – | 6 | 0 | 23 | −5 | −2 | 1 | – | – | – | 13282 | 12872 | mean fluorescence intensity (EGFP mRNA) (Hek293 cells; Dodecanal, 2.5 μM): 1201; mean fluorescence intensity (EGFP mRNA) (Hek293 cells; Dodecanal, 5 μM): 588; mean fluorescence intensity (EGFP mRNA) (Hek293 cells; Dodecanal, 10 μM): 3588; mean fluorescence intensity (EGFP mRNA) (Hek293 cells; Myristoleyl, 5 μM): 11945; mean fluorescence intensity (EGFP mRNA) (Hek293 cells; Myristoleyl, 10 μM): 1626; percentage of gene editing, GFP fluorescence intensity decrease (% of reduction) ([1]; Myristoleyl, 5 μM): −6%; percentage of gene editing, GFP fluorescence intensity decrease (% of reduction) ([1]; Oleyl, 5 μM): −5%; percentage of GFP-silencing relative to siMOCK ([2]; Myristoleyl, 15 μM): −13%; percentage of GFP-silencing relative to siMOCK ([2]; Oleyl, 10 μM): −9%; percentage of GFP-silencing relative to siMOCK ([2]; Palmitoleyl, 15 μM): 10%; percentage of GFP-silencing relative to siMOCK ([2]; Petroselinyl, 15 μM): 1% |
| Ac-RK*LRRK*L-NH2 (Ac-RK(NHNH2)LRRK(NHNH2)L-NH2; not fully specified; printed as Ac-RK*LRRK*L-NH2; also: K*2,K*6: native or modified lysine (ε-amide to a linker)) [Peptide 7.2] | 2550 | – | – | – | – | – | – | – | −21 | – | – | – | – | – | – | – | – | – | – | – | mean fluorescence intensity (EGFP mRNA) (Hek293 cells; Dodecanal, 2.5 μM): 251; mean fluorescence intensity (EGFP mRNA) (Hek293 cells; Dodecanal, 5 μM): 71; mean fluorescence intensity (EGFP mRNA) (Hek293 cells; Dodecanal, 10 μM): 648; mean fluorescence intensity (EGFP mRNA) (Hek293 cells; Myristoleyl, 5 μM): 1729; mean fluorescence intensity (EGFP mRNA) (Hek293 cells; Myristoleyl, 10 μM): 591; percentage of gene editing, GFP fluorescence intensity decrease (% of reduction) ([1]; Dodecanal, 15 μM): −29%; percentage of gene editing, GFP fluorescence intensity decrease (% of reduction) ([1]; Myristoleyl, 5 μM): −23%; percentage of GFP-silencing relative to siMOCK ([2]; Dodecanal, 10 μM): 14%; percentage of GFP-silencing relative to siMOCK ([2]; Dodecanal, 15 μM): 7%; percentage of GFP-silencing relative to siMOCK ([2]; Myristoleyl, 5 μM): −12%; percentage of GFP-silencing relative to siMOCK ([2]; Myristoleyl, 10 μM): −1%; percentage of GFP-silencing relative to siMOCK ([2]; Myristoleyl, 15 μM): −32% |
